# Where “and” joins values, the source holds several entries; their conditions need not be identical. Identical values can stand only once.
# Tests used:
# [1] = target: T1, GABAA receptor in the DMV (Mus musculus, UniProt P22723+P62812); test: Colocalization staining of puerarin probe with GABAA receptor on brain slices; conditions: brain slice tissue, immunofluorescence staining
# T1 construct: from tissue; host or cells: brain slice tissue (DMV)
# neurons in the DMV = test: Electrophysiological whole-cell patch-clamp recording of brain slices; type: cell-based; conditions: during puerarin incubation (concentration: 10 mM), current clamp, brain slices of obese mice
# Procedure: Obese mouse models fed with a high-fat feed for 12 weeks were taken and myocardially perfused with an artificial cerebrospinal fluid (ACSF), and 200 μm to 300 μm-thick brainstem tissue slices were prepared by vibration slicing; and brain slices were incubated in oxygen at 35° C. for 1 h and then transferred to a patch-clamp system for whole-cell patch-clamp recording. Recorded neurons were selected according to the cellular morphology in the DMV, and a green-fluorescent dye was added to a pipette solution to label cells.
# [2] = target: T2, γ2 subunit of the GABAA receptor (Gabrg2) in the DMV (Mus musculus, UniProt P22723+P62812); test: DMV-specific knockdown of Gabrg2 to block puerarin in obese mouse model: body weight, blood lipid, jejunal TG, c-fos; type: in vivo, mice; conditions: for Body weight curve change percentage / Jejunal TG level / Blood lipid level: single mice and mean
# T2 construct: from tissue; host or cells: brainstem DMV of living obese mice
# T2 sequence (P22723 39-474): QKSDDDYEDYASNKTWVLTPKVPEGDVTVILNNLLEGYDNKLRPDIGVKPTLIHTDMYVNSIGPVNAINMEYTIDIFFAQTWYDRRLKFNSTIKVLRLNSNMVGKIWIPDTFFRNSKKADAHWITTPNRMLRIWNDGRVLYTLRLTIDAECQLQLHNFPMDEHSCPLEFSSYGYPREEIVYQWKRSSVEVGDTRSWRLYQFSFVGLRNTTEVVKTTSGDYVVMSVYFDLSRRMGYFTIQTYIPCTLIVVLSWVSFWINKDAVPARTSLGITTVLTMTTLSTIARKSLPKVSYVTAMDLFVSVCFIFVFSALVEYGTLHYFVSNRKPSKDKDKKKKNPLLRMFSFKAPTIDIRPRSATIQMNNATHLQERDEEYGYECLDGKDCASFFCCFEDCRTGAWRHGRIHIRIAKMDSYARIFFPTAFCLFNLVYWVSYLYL
# T2 sequence (P62812 28-455): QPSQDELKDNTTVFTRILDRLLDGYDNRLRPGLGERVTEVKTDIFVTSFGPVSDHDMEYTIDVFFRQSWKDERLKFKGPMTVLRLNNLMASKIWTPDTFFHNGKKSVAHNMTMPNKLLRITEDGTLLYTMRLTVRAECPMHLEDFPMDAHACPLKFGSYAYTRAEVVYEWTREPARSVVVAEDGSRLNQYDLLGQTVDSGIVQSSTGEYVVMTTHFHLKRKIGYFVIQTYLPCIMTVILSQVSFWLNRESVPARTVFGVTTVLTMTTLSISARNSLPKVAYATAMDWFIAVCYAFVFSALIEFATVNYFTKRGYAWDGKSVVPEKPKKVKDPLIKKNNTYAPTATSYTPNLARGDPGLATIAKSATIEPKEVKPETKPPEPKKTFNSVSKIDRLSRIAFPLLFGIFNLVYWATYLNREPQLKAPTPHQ
# T2 sequence (P63080 26-473 partner): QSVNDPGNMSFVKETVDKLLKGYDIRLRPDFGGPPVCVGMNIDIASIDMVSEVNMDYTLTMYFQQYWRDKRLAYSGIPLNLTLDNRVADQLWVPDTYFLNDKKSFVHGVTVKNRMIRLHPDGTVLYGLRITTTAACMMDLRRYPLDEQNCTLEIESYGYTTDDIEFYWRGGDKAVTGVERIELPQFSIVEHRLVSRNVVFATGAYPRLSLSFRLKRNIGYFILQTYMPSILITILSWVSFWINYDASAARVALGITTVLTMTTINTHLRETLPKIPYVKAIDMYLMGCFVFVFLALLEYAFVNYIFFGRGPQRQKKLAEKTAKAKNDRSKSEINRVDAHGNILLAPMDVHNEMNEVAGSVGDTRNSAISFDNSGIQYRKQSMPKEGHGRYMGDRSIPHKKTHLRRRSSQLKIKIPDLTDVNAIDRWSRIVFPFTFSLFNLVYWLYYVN
# Procedure: A method for determining TG in a sample was as follows: 20 mg to 30 mg of a sample was first weighed, a 5% NP40-containing lysis buffer was added, and a resulting mixture was homogenated and incubated in a metal bath at 95° C. for 5 min, which was repeated twice. A resulting homogenate was cooled to room temperature and then centrifuged at 15,000 rpm for 2 min to 3 min, and a resulting supernatant was pipetted for determination. A Biovision kit was used to determine TG. 2 μl of the supernatant was added to each well, and after a chromogenic reaction was completed, a value of each well was determined by a microplate reader. TG in the small intestinal tissue was quantified through a standard protein concentration; and a total amount of lipids excreted with the feces was calculated based on a measured value of the feces sample and a total mass of the sample at 24 h.
# Similar to the above experiment, the rAAV-DIO-Gabrg2-shRNA (BrainVTA, China) was used to knock down Gabrg2 (a gene encoding the γ2 subunit of the GABAA receptor) in the DMV in an obese mouse model, and the rAAV-DIO-mCherry (BrainVTA, China) was used as a control group.
# [3] = target: T3, α1 subunit of the GABAA receptor (Gabra1) in the DMV (Mus musculus, UniProt P22723+P62812); test: DMV-specific knockdown of Gabra1 to block puerarin in obese mouse model: body weight, blood lipid, jejunal TG, c-fos; type: in vivo, mice; conditions: for Body weight curve change percentage: single mice and mean
# T3 construct: from tissue; host or cells: brainstem DMV of living obese mice
# T3 sequence (P62812 28-455): as the sequence (P62812 28-455) above
# T3 sequence (P63080 26-473 partner): as the sequence (P63080 26-473 partner) above
# T3 sequence (P22723 39-474): as the sequence (P22723 39-474) above
# obese mouse model = test: Intraperitoneal puerarin for 20 d in high-fat-diet obese mouse model: body weight, blood lipid, jejunal TG, c-fos staining, oil red O staining; type: in vivo, C57BL/6J mice; conditions: brain slice c-fos immunofluorescence, puerarin i.p. 20 d vs control group
# Procedure: The C57BL/6J mice were used as experimental mice in the present disclosure. The experimental mice each were raised in an SPF-level environment at 22° C. to 24° C. with a 12:12 circadian rhythm, and the experimental mice each were subjected to anaesthesia, analgesia, surgery, intraperitoneal injection, and other experimental operations in accordance with the relevant provisions of animal ethics.
# In the present disclosure, the mice were fed with a high-fat diet in which a mass percentage of fat was 60% for 12 weeks, and when a body weight reached 35 g or more, animal models of alimentary obesity were successfully constructed. At a formal stage of the experiment (starting on day 0 in FIG. 1A, FIG. 3A, FIG. 6A, and FIG. 7A), the mice were raised in single cages, during which a daily food intake of each mouse model was accurately recorded, the feces was collected before and after drug intervention, and a daily body weight curve was recorded.
# A method for determining TG in a sample was as follows: 20 mg to 30 mg of a sample was first weighed, a 5% NP40-containing lysis buffer was added, and a resulting mixture was homogenated and incubated in a metal bath at 95° C. for 5 min, which was repeated twice. […] 2 μl of the supernatant was added to each well, and after a chromogenic reaction was completed, a value of each well was determined by a microplate reader. […]
# GABAA (α1β3γ2) receptor = target: T4, GABAA (α1β3γ2) receptor (Homo sapiens, UniProt P14867+P18507); test: Bioelectric signal of 293S cell line with GABA and puerarin co-incubation; type: cell-based; conditions: 0.5 μM GABA co-incubated with puerarin for 3 min to 5 min
# T4 construct: expressed in transfected cells
# T4 sequence (P14867 28-456): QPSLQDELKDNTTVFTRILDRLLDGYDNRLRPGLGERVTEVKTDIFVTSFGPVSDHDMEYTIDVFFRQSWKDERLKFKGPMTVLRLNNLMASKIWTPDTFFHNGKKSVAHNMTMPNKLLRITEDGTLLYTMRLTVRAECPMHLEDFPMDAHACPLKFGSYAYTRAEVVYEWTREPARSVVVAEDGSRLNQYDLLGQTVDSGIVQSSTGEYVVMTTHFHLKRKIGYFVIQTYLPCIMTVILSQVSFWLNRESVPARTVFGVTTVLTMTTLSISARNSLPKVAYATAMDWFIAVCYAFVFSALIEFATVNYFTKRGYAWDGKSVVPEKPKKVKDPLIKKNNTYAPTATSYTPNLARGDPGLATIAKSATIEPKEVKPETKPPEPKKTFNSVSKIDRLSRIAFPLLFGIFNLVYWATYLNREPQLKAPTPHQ
# T4 sequence (P28472 26-473 partner): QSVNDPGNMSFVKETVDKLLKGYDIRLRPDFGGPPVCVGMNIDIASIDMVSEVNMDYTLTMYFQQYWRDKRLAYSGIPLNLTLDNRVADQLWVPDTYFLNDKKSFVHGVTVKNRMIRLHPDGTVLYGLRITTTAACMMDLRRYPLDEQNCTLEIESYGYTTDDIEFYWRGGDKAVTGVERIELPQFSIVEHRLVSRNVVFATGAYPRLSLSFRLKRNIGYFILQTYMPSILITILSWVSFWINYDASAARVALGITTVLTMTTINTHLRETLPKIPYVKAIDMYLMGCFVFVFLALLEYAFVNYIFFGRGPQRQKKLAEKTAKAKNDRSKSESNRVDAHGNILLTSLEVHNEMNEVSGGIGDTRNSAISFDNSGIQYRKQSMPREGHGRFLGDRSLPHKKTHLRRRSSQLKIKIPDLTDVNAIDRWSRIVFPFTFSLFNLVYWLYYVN
# T4 sequence (P18507 40-475): as the sequence (P22723 39-474) above
# [4] = Puerarin group (control virus in DMV, puerarin i.p. daily), Day 0 baseline
# [5] = Puerarin group (control virus, puerarin i.p. 7 d)
# [6] = Puerarin group (control virus, puerarin i.p. 7 d), mean
# [7] = Puerarin group vs control group
# T1 sequence (P62812 28-455): as the sequence (P62812 28-455) above
# T1 sequence (P63080 26-473 partner): as the sequence (P63080 26-473 partner) above
# T1 sequence (P22723 39-474): as the sequence (P22723 39-474) above
smiles,measurement,setting,value
"O=c1c(-c2ccc(O)cc2)coc2c([C@@H]3O[C@H](CO)[C@@H](O)[C@H](O)[C@H]3O)c(O)ccc12 [Puerarin, puerarin]",Distribution of puerarin probe and colocalization with GABAA receptor staining,[1],enriched in the DMV and showed prominent colocalization with staining of the GABAA receptor
same,Action potential discharge frequency of neurons in the DMV,neurons in the DMV,significantly reduced
same,Membrane potential of neurons in the DMV,neurons in the DMV,slightly lower than the initial baseline
same,Body weight curve change percentage,"[2]; Gγ2 blocking group (Gabrg2 shRNA virus in DMV, puerarin i.p. daily), Day 0 baseline",0.00%
same,Jejunal TG level,"[2]; Gγ2 blocking group (Gabrg2 shRNA virus, puerarin i.p. 7 d)",1.1912 μmol/mg/protein and 1.5075 μmol/mg/protein and 1.6522 μmol/mg/protein and 1.1566 μmol/mg/protein and 1.0093 μmol/mg/protein
same,Jejunal TG level,"[2]; Gγ2 blocking group (Gabrg2 shRNA virus, puerarin i.p. 7 d), mean",1.3034 μmol/mg/protein
same,Body weight curve change percentage,"[2]; Gγ2 blocking group (Gabrg2 shRNA virus, puerarin i.p. daily), Day 1",0.82% and 0.55% and −0.82% and −0.55% and 0.79%
same,Body weight curve change percentage,"[2]; Gγ2 blocking group (Gabrg2 shRNA virus, puerarin i.p. daily), Day 1, mean",0.16%
same,Body weight curve change percentage,"[2]; Gγ2 blocking group (Gabrg2 shRNA virus, puerarin i.p. daily), Day 2",1.37% and −0.28% and 0.27% and 0.54% and −0.81%
same,Body weight curve change percentage,"[2]; Gγ2 blocking group (Gabrg2 shRNA virus, puerarin i.p. daily), Day 2, mean",0.22%
same,Body weight curve change percentage,"[2]; Gγ2 blocking group (Gabrg2 shRNA virus, puerarin i.p. daily), Day 3",0.55% and −1.13% and 0.54% and 1.08% and 1.57%
same,Body weight curve change percentage,"[2]; Gγ2 blocking group (Gabrg2 shRNA virus, puerarin i.p. daily), Day 3, mean",0.52%
same,Body weight curve change percentage,"[2]; Gγ2 blocking group (Gabrg2 shRNA virus, puerarin i.p. daily), Day 4",0.28% and −1.41% and 0.80% and 1.60% and 1.06%
same,Body weight curve change percentage,"[2]; Gγ2 blocking group (Gabrg2 shRNA virus, puerarin i.p. daily), Day 4, mean",0.47%
same,Body weight curve change percentage,"[2]; Gγ2 blocking group (Gabrg2 shRNA virus, puerarin i.p. daily), Day 5",0.55% and −0.56% and 2.62% and 3.41% and 0.79%
same,Body weight curve change percentage,"[2]; Gγ2 blocking group (Gabrg2 shRNA virus, puerarin i.p. daily), Day 5, mean",1.36%
same,Body weight curve change percentage,"[2]; Gγ2 blocking group (Gabrg2 shRNA virus, puerarin i.p. daily), Day 6",0.55% and −0.56% and 2.62% and 3.41% and 1.83%
same,Body weight curve change percentage,"[2]; Gγ2 blocking group (Gabrg2 shRNA virus, puerarin i.p. daily), Day 6, mean",1.57%
same,Body weight curve change percentage,"[2]; Gγ2 blocking group (Gabrg2 shRNA virus, puerarin i.p. daily), Day 7",0.82% and 0.00% and 2.37% and 3.16% and 2.09%
same,Body weight curve change percentage,"[2]; Gγ2 blocking group (Gabrg2 shRNA virus, puerarin i.p. daily), Day 7, mean",1.69%
same,c-fos staining signal of neurons in the DMV,"[2]; Gγ2 blocking group (tissue-specific knockdown of Gabrg2, puerarin i.p.)",could intervene in the inhibitory effect of puerarin on neurons in the DMV
same,Body weight curve change percentage,[2]; [4],0.00%
same,Blood lipid level,[2]; [5],0.6408 mM and 0.7143 mM and 0.8673 mM and 0.7337 mM and 0.7380 mM
same,Jejunal TG level,[2]; [5],0.9191 μmol/mg/protein and 0.8860 μmol/mg/protein and 0.8466 μmol/mg/protein and 0.9139 μmol/mg/protein and 0.7516 μmol/mg/protein
same,Blood lipid level,[2]; [6],0.7388 mM
same,Jejunal TG level,[2]; [6],0.8634 μmol/mg/protein
same,Body weight curve change percentage,"[2]; Puerarin group (control virus, puerarin i.p. daily), Day 1",−1.10% and −1.06% and −0.81% and −0.79% and 0.82%
same,Body weight curve change percentage,"[2]; Puerarin group (control virus, puerarin i.p. daily), Day 1, mean",−0.59%
same,Body weight curve change percentage,"[2]; Puerarin group (control virus, puerarin i.p. daily), Day 2",−0.82% and −1.60% and −0.81% and −1.06% and −1.11%
same,Body weight curve change percentage,"[2]; Puerarin group (control virus, puerarin i.p. daily), Day 2, mean",−1.08%
same,Body weight curve change percentage,"[2]; Puerarin group (control virus, puerarin i.p. daily), Day 3",−2.50% and −0.53% and −2.20% and −1.33% and −1.68%
same,Body weight curve change percentage,"[2]; Puerarin group (control virus, puerarin i.p. daily), Day 3, mean",−1.65%
same,Body weight curve change percentage,"[2]; Puerarin group (control virus, puerarin i.p. daily), Day 4",−3.07% and −2.14% and −2.76% and −1.87% and −0.83%
same,Body weight curve change percentage,"[2]; Puerarin group (control virus, puerarin i.p. daily), Day 5",−4.83% and −2.97% and −1.64% and −5.20%
same,Body weight curve change percentage,"[2]; Puerarin group (control virus, puerarin i.p. daily), Day 5, mean",−3.52%
same,Body weight curve change percentage,"[2]; Puerarin group (control virus, puerarin i.p. daily), Day 6",−5.13% and −4.10% and −3.05% and −5.54% and −3.41%
same,Body weight curve change percentage,"[2]; Puerarin group (control virus, puerarin i.p. daily), Day 6, mean",−4.24%
same,Body weight curve change percentage,"[2]; Puerarin group (control virus, puerarin i.p. daily), Day 7",−6.34% and −4.96% and −3.33% and −5.54% and −3.41%
same,Body weight curve change percentage,"[2]; Puerarin group (control virus, puerarin i.p. daily), Day 7, mean",−4.72%
same,c-fos staining signal of neurons in the DMV,[2]; [7],inhibited by puerarin
same,Body weight curve change percentage,"[3]; Gα1 blocking group (Gabra1 shRNA virus in DMV, puerarin i.p. daily), Day 0 baseline",0.00%
same,Body weight curve change percentage,"[3]; Gα1 blocking group (Gabra1 shRNA virus, puerarin i.p. daily), Day 2",0.70% and 0.68% and 0.80% and 0.69% and 1.06% and 0.91% and 0.82% and 0.83%
same,c-fos staining of brain slices (DMV),"[3]; Gα1 blocking group (tissue-specific knockdown of Gabra1, puerarin i.p.)",would intervene in the inhibitory effect of puerarin on neurons in the DMV
same,Body weight curve change percentage,[3]; [4],0.00%
same,c-fos staining of brain slices (DMV),[3]; [7],less than that of the control group
same,Number of c-fos fluorescence signals in the DMV brain region,obese mouse model,smaller than that in the control group
same,Chloride influx / bioelectric signal change,GABAA (α1β3γ2) receptor,"increased chloride ions would enter cells, causing hyperpolarization"
